The record followed here is publication PMC3917155 (Journal of medicinal chemistry, 2013).

This assay relates to R2(VC). As to the kind of experiment: cells. More on the design: species or system CHO sublines. The conditions noted are these: 96 h, read-out: >1000.

Regarding `Nc1nc2[nH]cc(CCCCc3ccc(C(=O)N[C@@H](CCC(=O)O)C(=O)O)cc3)c2c(=O)[nH]1` [compound 8], the IC50 is over 1000 nM. The same measure for `Nc1nc2[nH]cc(CCCc3ccc(C(=O)N[C@@H](CCC(=O)O)C(=O)O)cc3)c2c(=O)[nH]1` [compound 7]: over 1000 nM.
